Molecules are shown by their SMILES.

Series [1] in a line: Selectivity index, ratio of CC50 for human MT4 cells to EC50 for wild-type HIV-1 3B infected in human MT4 cells. The series is classed as toxicity, cell-based. The conditions noted are these: read-out: Ratio CC50/EC50.
A short description of series [2]: Cytotoxicity against mock-infected human MT4 cells assessed as decrease in cell viability measured 5 days post-infection by MTT assay. It is filed as cell-based. (In general: Tetrazolium dyes change colour on reduction, which living cells bring about.)
The subject of series [3] is Human immunodeficiency virus 2. In words: Antiviral activity against HIV-2 ROD infected in human MT4 cells assessed as protection against virus-induced cytopathic effect measured 5 days post-infection by MTT assay. The series is classed as functional, organism-based. The conditions noted are these: Human immunodeficiency virus 2, ROD, MT4, 120 h. On the technique in general: Cytopathic effects are the visible damage that an infection or toxin causes in cultured cells.

Series [4] relates to Human immunodeficiency virus 1. The series is described as follows: Antiviral activity against HIV-1 RES056 harboring RT K103N+Y181C double mutant infected in human MT4 cells assessed as protection against virus-induced cytopathic effect measured 5 days post-infection by MTT assay. Conditions: Human immunodeficiency virus 1, RES056, MT4, 120 h. The series is classed as functional, organism-based.

In series [5] the test system is Human immunodeficiency virus 1. The series is described as follows: Antiviral activity against wild-type HIV-1 3B infected in human MT4 cells assessed as protection against virus-induced cytopathic effect measured 5 days post-infection by MTT assay. The series is classed as functional, organism-based. The conditions noted are these: Human immunodeficiency virus 1, 3B, MT4, 120 h.

Series [6] deals with Human immunodeficiency virus type 1 reverse transcriptase (Human immunodeficiency virus 1, UniProt Q72547). In words: Inhibition of HIV-1 wild type recombinant reverse transcriptase p66/p51 assessed as RNA-DNA heteroduplex formation using poly(rA) template/oligo(dT)16 primer incubated prior to enzyme addition by spectrofluorometer analysis.

Broadly, the CC50 is the concentration at which the toxic effect on the cells reaches its halfway point. In general, EC50 refers to the concentration at which the effect is half-maximal. Turning to `COc1ccc(CSc2nc(C(C#N)c3cccc(F)c3)c(C)c(=O)[nH]2)cc1` (stereo not drawn), the selectivity ratio in series [1] stood at 6. Besides, in series [2], the CC50 at 120 h amounted to 173 µM. Also, the EC50 in series [3] is more than 173 µM; in series [4] it was more than 173 µM; in series [5], 29.1 µM.
On to `COc1ccc(CSc2nc(C(C#N)c3ccc(F)cc3)c(C)c(=O)[nH]2)cc1` (stereo not drawn), for which the selectivity ratio in series [1] is less than 1. Further, in series [2], the CC50 at 120 h amounted to 95.2 µM. In addition, the EC50 in series [3] and in series [5] was more than 95.2 µM throughout.
As a reminder, the IC50 is the midpoint of a concentration-inhibition curve. For the compound `COc1ccc(CSc2nc(C(C#N)c3ccccc3Cl)c(C)c(=O)[nH]2)cc1` (stereo not drawn), the IC50 in series [6] is 0.51 µM. The selectivity ratio in series [1] turned out to be 239. Besides, the CC50 at 120 h in series [2] was 116 µM. Besides, the EC50 in series [3] is more than 116 µM; in series [4], more than 116 µM; in series [5], 0.49 µM.
Regarding `COc1ccc(CSc2nc(C(C#N)c3cccc(Cl)c3)c(C)c(=O)[nH]2)cc1` (stereo not drawn), in series [1], the selectivity ratio turned out to be 9. Moreover, in series [2], the CC50 at 120 h was 161 µM. The EC50 in series [3] is more than 161 µM; in series [4], more than 161 µM; in series [5] it was 18 µM.
Take `COc1ccc(CSc2nc(C(C#N)c3ccc(Cl)cc3)c(C)c(=O)[nH]2)cc1` (stereo not drawn): the selectivity ratio in series [1] was less than 1. Moreover, in series [2], the CC50 at 120 h was 28.9 µM. Also, the EC50 in series [3] and in series [5] was more than 28.9 µM in each case.
On to `COc1ccc(CSc2nc(C(C#N)c3ccccc3Br)c(C)c(=O)[nH]2)cc1` (stereo not drawn), for which the IC50 in series [6] is 1.55 µM. Further, the selectivity ratio in series [1] is 208. For the same compound, the CC50 at 120 h in series [2] is 86.7 µM. Moreover, the results for the EC50 in series [3], in series [4] and in series [5] were more than 86.7 µM, more than 86.7 µM and 0.42 µM, respectively.
For `COc1ccc(CSc2nc(C(C#N)c3cccc(Br)c3)c(C)c(=O)[nH]2)cc1` (stereo not drawn), the selectivity ratio in series [1] came to 10. In addition, the CC50 at 120 h in series [2] is 156 µM. In addition, the EC50 in series [3] was more than 156 µM; in series [4], more than 156 µM; in series [5], 16.3 µM.
As for `CCc1c(C(C#N)c2ccccc2F)nc(SCc2ccc(OC)cc2)[nH]c1=O` (stereo not drawn), the selectivity ratio in series [1] turned out to be 66. In addition, the CC50 at 120 h in series [2] came out at 109 µM. Moreover, the results for the EC50 in series [3], in series [4] and in series [5] were more than 109 µM, more than 109 µM and 1.66 µM, respectively.
On to `CCc1c(C(C#N)c2cccc(F)c2)nc(SCc2ccc(OC)cc2)[nH]c1=O` (stereo not drawn), for which the selectivity ratio in series [1] turned out to be 24. Moreover, the CC50 at 120 h in series [2] was determined as 173 µM. The results for the EC50 in series [3], in series [4] and in series [5] were more than 173 µM, more than 173 µM and 7.08 µM, respectively.
With `CCc1c(C(C#N)c2ccccc2Cl)nc(SCc2ccc(OC)cc2)[nH]c1=O` (stereo not drawn), in series [1], the selectivity ratio worked out at 57. Moreover, in series [2], the CC50 at 120 h came out at 76.9 µM. The EC50 in series [3] was more than 76.9 µM; in series [4], more than 76.9 µM; in series [5], 1.34 µM.
As to `CCc1c(C(C#N)c2ccc(Br)cc2)nc(SCc2ccc(OC)cc2)[nH]c1=O` (stereo not drawn), in series [1], the selectivity ratio is less than 1. Further, the CC50 at 120 h in series [2] worked out at 23.9 µM. Also, the EC50 in series [3] and in series [5] was more than 23.9 µM in each case.
`COc1ccc(CSc2nc(C(C#N)c3ccc(F)cc3)c(C(C)C)c(=O)[nH]2)cc1` (stereo not drawn): the selectivity ratio in series [1] came to 7. Also, the CC50 at 120 h in series [2] is 137 µM. Besides, the EC50 in series [3] was more than 137 µM; in series [4], more than 137 µM; in series [5], 20.4 µM.
On to `COc1ccc(CSc2nc(C(C#N)c3ccccc3Cl)c(C(C)C)c(=O)[nH]2)cc1` (stereo not drawn), for which the selectivity ratio in series [1] worked out at 7. In addition, the CC50 at 120 h in series [2] amounted to 27.4 µM. In addition, the EC50 is more than 27.4 µM in series [3], more than 27.4 µM in series [4] and 3.91 µM in series [5].
In the case of `COc1ccc(CSc2nc(C(C#N)c3ccc(Cl)cc3)c(C(C)C)c(=O)[nH]2)cc1` (stereo not drawn), the selectivity ratio in series [1] was not above 2. Moreover, the CC50 at 120 h in series [2] amounted to 85.2 µM. Besides, the concentration giving a half-maximal response (EC50) in series [3] was more than 85.2 µM; in series [4], more than 85.2 µM; in series [5], more than 40.7 µM.
Turning to `COc1ccc(CSc2nc(C(C#N)c3ccccc3Br)c(C(C)C)c(=O)[nH]2)cc1` (stereo not drawn), the selectivity ratio in series [1] stood at 6. The CC50 at 120 h in series [2] turned out to be 26.7 µM. Further, the EC50 in series [3] is more than 26.7 µM; in series [4], more than 26.7 µM; in series [5], 4.46 µM.
For the compound `COc1ccc(CSc2nc(C(C#N)c3cccc(Br)c3)c(C(C)C)c(=O)[nH]2)cc1` (stereo not drawn), in series [1], the selectivity ratio is 21. Besides, the CC50 at 120 h in series [2] is 119 µM. Besides, the EC50 in series [3] was more than 119 µM; in series [4] it was more than 119 µM; in series [5] it was 5.72 µM.
For `COc1ccc(CSc2nc(C(C#N)c3c(Cl)cccc3Cl)c(C)c(=O)[nH]2)cc1` (stereo not drawn), the IC50 in series [6] came out at 0.23 µM. Further, the selectivity ratio in series [1] is 252. The CC50 at 120 h in series [2] was 48.8 µM. Besides, the EC50 in series [3] is more than 48.8 µM; in series [4], more than 48.8 µM; in series [5] it was 0.19 µM.
Turning to `COc1ccc(CSc2nc(C(C#N)c3ccc(Br)cc3F)c(C)c(=O)[nH]2)cc1` (stereo not drawn), the selectivity ratio in series [1] was less than 1. In series [2], the CC50 at 120 h came to 22.5 µM. For the same compound, the EC50 in series [3] and in series [5] was more than 22.5 µM throughout.
In the case of `COc1ccc(CSc2nc(C(C#N)c3c(F)cccc3Cl)c(C)c(=O)[nH]2)cc1` (stereo not drawn), the IC50 in series [6] was 0.17 µM. The selectivity ratio in series [1] was determined as 548. For the same compound, the CC50 at 120 h in series [2] is 50.1 µM. Moreover, the figures for the EC50 in series [3], in series [4] and in series [5] were more than 50.1 µM, more than 50.1 µM and 0.091 µM, respectively.
As for `COc1ccc(CSc2nc(C(C#N)c3ccc(F)cc3F)c(C)c(=O)[nH]2)cc1` (stereo not drawn), in series [1], the selectivity ratio amounted to 8. Also, the half-maximal cytotoxic concentration (CC50) at 120 h in series [2] is 157 µM. The values for the EC50 in series [3], in series [4] and in series [5] were more than 157 µM, more than 157 µM and 20.7 µM, respectively.
With `COc1ccc(CSc2nc(C(C#N)c3cc(F)cc(F)c3)c(C)c(=O)[nH]2)cc1` (stereo not drawn), the selectivity ratio in series [1] turned out to be 7. For the same compound, in series [2], the CC50 at 120 h worked out at 154 µM. Moreover, the results for the EC50 in series [3], in series [4] and in series [5] were more than 154 µM, more than 154 µM and 21.3 µM, respectively.
Consider `CC(C)Nc1cccnc1N1CCN(C(=O)c2cc3cc(NS(C)(=O)=O)ccc3[nH]2)CC1` [DELAVIRDINE], for which, in series [1], the selectivity ratio was more than 338. The CC50 at 120 h in series [2] was more than 36.2 µM. In series [4], the EC50 was more than 36.2 µM.
For `O=C1Nc2ccc(Cl)cc2[C@@](C#CC2CC2)(C(F)(F)F)O1` [EFAVIRENZ], the CC50 at 120 h in series [2] was more than 6.34 µM.
For `Cc1ccnc2c1NC(=O)c1cccnc1N2C1CC1` [NEVIRAPINE], in series [2], the CC50 at 120 h is more than 15 µM.
Regarding `Nc1ccn([C@H]2CC[C@@H](CO)O2)c(=O)n1` [ZALCITABINE], the selectivity ratio in series [1] was more than 169. In series [2], the CC50 at 120 h is more than 94.7 µM. Further, the values for the EC50 in series [3] and in series [5] were 1.61 µM and 0.57 µM, respectively.
Take `Cc1cn([C@H]2C[C@H](N=[N+]=[N-])[C@@H](CO)O2)c(=O)[nH]c1=O` [ZIDOVUDINE]: the selectivity ratio in series [1] was more than 14400. Besides, the CC50 at 120 h in series [2] was more than 93.6 µM. The results for the EC50 in series [4] and in series [5] were 0.0063 µM and 0.0064 µM, respectively.

These data come from ChEMBL document CHEMBL3132784, “Synthesis and biological evaluation of new conformationally restricted S-DABO hybrids as non-nucleoside inhibitors of HIV-1 reverse transcriptase” (Medchemcomm, 2014).
